Experimental data: patent publication US6974702B2, “Fourier transform mass spectrometry of complex biological samples” (Esperion Therapeutics, Inc., priority 2000, dated 2005)

Tests used:
[1] = system: primary rat hepatocyte cells; test: FTMS of extracts of primary rat hepatocytes treated with lovastatin; type: cell-based; conditions: lovastatin 0.03 to 30 μM for 4 hours, normalized against untreated
Protocol: A male Sprague-Dawley rat was anesthetized by administration of sodium pentobarbitol by at 50 mg/kg body mass be intraperitoneal injection. In situ perfusion of the liver was performed as follows. The abdomen of the animal was opened, the portal vein was cannulated, and the liver perfused with WOSH solution (149 mM NaCl, 9.2 mM Na HEPES, 1.7 mM fructose, 0.5 mM EGTA, 10 U/ml heparin, pH 7.5) at a flow rate of 30 ml/min for 6 minutes. To digest the liver, DSC solution (6.7 mM KCl, 143 mM NaCl, 9.2 mM Na HEPES, 5 mM CaCl2-2H2O, 1.7 mM fructose, 0.2% BSA, 100 U/ml collagenase Type I, 80 U/ml, 160 BAEE/ml trypsin inhibitor, pH 7.5) was perfused through the liver at a flow rate of 30 ml/min for 6 minutes at a temperature of 37° C. After digestion, cells were dispersed in a solution of DMEM- (DMEM containing 2mM GlutMax-1, 0.2% BSA, 5% FBS, 12 nM insulin, 1.2 μM hydrocortisone) to stop the digestion process. The crude cell suspension was filtered through three layers of stainless steel mesh with pore sizes of 250, 106, and 75 um respectively. Filtered cells were centrifuged at 50×g for two minutes and the supernatant discarded. […]
All measurements were carried out on a Bruker APEX II FTMS equipped with a 7.0 Tesla magnet. […] The accurate mass data was then analyzed using Tcl/Tk routines, which serially search the mass spectra from each well for chemical composition of metabolic products. […]

[2] = HICS-FTMS of plasma from rats treated by oral gavage; type: in vivo; conditions: rat plasma, 100 mg/kg daily by oral gavage for one week, versus untreated rats
Protocol: Three rats were treated daily with 100 mg/kg of 6-(6-hydroxy-5,5-dimethylhexyloxy)-2,2-dimethyl-hexan-1-ol by oral gavage, over the course of one week. 6-(6-hydroxy-5,5-dimethylhexyloxy)-2,2-dimethyl-hexon-1-ol increases HDL-cholesterol and improves glucose utilization in experimental rats (see U.S. application Ser. No. 09/540,738 , filed Mar. 31, 2000). At the end of the week, blood was drawn from each of the three rats, as well as from three control (untreated) rats. The blood was allowed to coagulate, and the plasma was prepared for FTMS by adding a water and methanol solution (49:49:2, water:methanol:acetic acid v:v:v) each of the plasma preparations. The mixture was chilled to precipitate the proteins to the bottom of the tube. Each tube was centrifuged, the supernatant decanted and the sample desalted by adding approximately 100 mg of DOWEX ion exchange resin to each vial and incubating the sample with the resin for approximately 10 minutes. The sample was then centrifuged and the supernatant removed. This solution was then introduced to the FT mass spectrometer.

[3] = experimental rats; see U.S. application Ser. No. 09/540,738; cited from earlier work

Compound	relative intensity of FTMS peak at molecular mass 85.02815 [1]	relative intensity of FTMS peak at molecular mass 85.64405 [1]	intensity of FTMS peak of molecular mass approximately 766.4 Daltons [2]	intensity of FTMS peak of molecular mass approximately 766.8 Daltons [2]	HDL-cholesterol [3]	glucose utilization [3]
CC[C@H](C)C(=O)O[C@H]1C[C@@H](C)C=C2C=C[C@H](C)[C@H](CC[C@@H]3C[C@@H](O)CC(=O)O3)[C@H]21 [lovastatin]	decreasing trend	increasing trend				
CC(C)(CO)CCCCOCCCCC(C)(C)CO [6-(6-hydroxy-5,5-dimethylhexyloxy)-2,2-dimethyl-hexan-1-ol]			reproducibly higher intensities	reproducibly higher intensities	increases	improves
